Legend:
[1] = test system: ES2 cells stably expressing 4UbFL; test: In vitro 4UbFL assay, ES2 cells; format: cell-based; conditions: ES2-4UbFL cells, two-fold dilution series, 4 hr
Protocol: Sub-confluent cultures of ES2 cells stably expressing 4UbFL were seeded at 10,000 cells/well in 96-well microtiter plates. At 18 hr post transfection, cells were treated with compounds or vehicle (DMSO) at the doses indicated. After a 4 hr incubation, the cells were lysed and the luciferase activity in each cell lysate was determined with a luciferase assay kit (Promega) according to the manufacturer's instructions. Bioluminescence was measured by using a luminometer (Glomax Multidetection system, Promega).
To measure RA475 on-target activity in live cells, the inventors used an expression vector for the reporter gene 4UbFL in which the gene for firefly luciferase (FL) is inserted in-frame 3′ to four copies of ubiquitin (PMID: 12819780). […] Proteasome inhibition stabilizes 4UbFL and thus increases the bioluminescence signal upon addition of luciferin substrate, and this can be measured by a luminometer (for cells) or visualized by IVIS imaging (for mice).
ES2 cells stably transfected with 4UbFL expression plasmid (ES2-4UbFL) were plated in a 96 well microtiter plate and 18 hr later treated with DMSO only as a negative control, or two-fold dilution series of either Up284 or RA475. After 4 hr medium was removed and the cells were lysed using luciferase lysis buffer and bioluminescence was measured using a luminometer after the addition of luciferin substrate.

[2] = Microsomal stability, mouse liver microsomes; format: in vitro ADME
Protocol: (§1) Human and mouse liver microsomes and NADPH regenerating system solutions were purchased from Corning Life Sciences (Tewsbury, MA). Human and mouse K2EDTA was purchased from BioIVT (Westbury, NY). Metabolic studies in liver microsomes (0.125 mg/mL) were conducted in 1× phosphate buffered saline (pH 7.4), NADPH-generating system, and 10 μM of RA475 in a final volume of 250 μl. An incubation mixture with and without NADPH-generating system as well as a neat solution without microsomes and NADPH-generating system were prepared. RA475 was added at the same concentration level into human and mouse EDTA plasma. All reactions were initiated with the addition of RA475. Incubations were performed in glass tubes maintained at 37° C. in a shaker bath. At 0, 30, and 60 minutes, 10 μL aliquots were sampled from the reaction mixture and 0.5 mL of acetonitrile containing internal standard (Up284) was added to each samples. Samples were vortex-mixed and underwent centrifugation for 5 min at 1430×g. A 10 μL aliquot of the supernatant was injected onto the LC-MS instrument for qualitative analysis using a temperature-controlled autosampling device operating at 5° C. Chromatographic analysis was performed using a Waters Acquity™ Ultra Performance LC. […] The mobile phase used for the chromatographic separation was composed of water (mobile phase A) and acetonitrile (mobile phase B) containing 0.1% (v/v) formic acid with a flow rate of 0.3 mL/min. The initial mobile phase composition was 80% mobile phase A and 20% mobile phase B. From 0.5 to 1 min, mobile phase B was increased linearly from 20% to 100%. From 1 to 3 min, mobile phase B was maintained at 100%. From 3.0 to 3.1 min, the gradient decreased to 20% mobile phase B and the conditions were maintained until 4.1 min to re-equilibrate the column for the next injection. The column effluent was monitored using an AB Sciex 5500 triple quadrupole mass spectrometer. The instrument was equipped with an electrospray interface, operated in a positive mode and controlled by the Analyst v1.6 software. For the stability study, the mass spectrometer was programmed to monitor the following MRM transition 408.2→366.1 for RA475 and 366.2→155.8 for UP284 (internal standard). Results were assessed qualitatively comparing the average area ratio of RA475 at 0 hr to area ratio at 30 and 60 minutes for both mouse and human liver microsomes. RA475 was not analyzed for metabolites due to the concentration of RA475 not decreasing.

[3] = test system: 4UbFL reporter in leg muscle of CD-1 mice; test: On-target activity in vivo using 4UbFL; design: species or system mouse; conditions: 40 mg/Kg single i.p. dose
Protocol: A patch was shaved of hair on one leg of CD-1 mice, and 10 μg 4UbFL plasmid in 20 μL of PBS was injected into the quadriceps femoralis muscle followed immediately by injection of the 2 Needle Array to 5 mm depth encompassing the injection site and square wave electroporation (ElectroSquarePorator 833, BTX-2 Needle array 5 mm gap, Harvard apparatus) delivered as eight pulses at 106V for 20 ms with 200 ms intervals. One day post electroporation, mice were anesthetized with isoflurane, injected i.p. with luciferin (0.3 mg in 100 μL water) and optical imaging was performed to determine basal level luciferase expression. Images were acquired for 10 min with a Xenogen IVIS 200 (Caliper, Hopkinton, MA). Equally sized areas were analyzed using Living Image 2.20 software. Mice were imaged weekly during treatment. Mice were randomized into three groups (n=5) and treated i.p. once with Vehicle (25% (w/v) β-Hydroxypropylcyclodextrin in water, Sigma Aldrich), RA475 (40 mg/Kg) and Up284 (40 mg/Kg) and mice were imaged again at 4 hr, 24 hr, 48 hr, 72 hr and 96 hr later.
To assess on-target activity in vivo, 4UbFL plasmid was injected into the muscle of one leg of CD-1 mice followed by electroporation. Luciferin was injected i.p. 24 hr later and the mice were tagged and imaged using an IVIS200 to visualize their basal bioluminescence. The mice were then immediately randomized to 3 groups and treated with vehicle alone (25% β-hydroxypropylcyclodextrin-water solution), RA475 (40 mg/Kg) and Up284 (40 mg/Kg) administered as a single i.p. dose. To examine the on-target activity, the mice were imaged again at 4 hr, 24 hr, 48 hr, 72 hr and 96 hr later.

Neat solution stability = format: physicochemical; conditions: 10 μM, 37° C.
Protocol: as §1

| Compound | bioluminescent signal of 4UbFL reporter [1] | % Drug Remaining ([2]; NADPH Neg, 0 minutes) | % Drug Remaining ([2]; NADPH Neg, 30 minutes) | % Drug Remaining ([2]; NADPH Neg, 60 minutes) | % Drug Remaining ([2]; NADPH Pos, 0 minutes) | % Drug Remaining ([2]; NADPH Pos, 30 minutes) | % Drug Remaining ([2]; NADPH Pos, 60 minutes) | increase in bioluminescence at the site of electroporation over baseline ([3]; 4 hr after administration) | increase in bioluminescence at the site of electroporation over baseline ([3]; 24 hr after administration) | % Drug Remaining (Neat solution stability; 0 minutes) | % Drug Remaining (Neat solution stability; 30 minutes) | % Drug Remaining (Neat solution stability; 60 minutes) |
| --- | --- | --- | --- | --- | --- | --- | --- | --- | --- | --- | --- | --- |
| Cl.Cl.N#Cc1ccc(/C=C2/C(=O)/C(=C/c3ccc(C#N)cc3)C23CCN(C(=N)N)CC3)cc1 [RA475] | significantly increased | 100% | 90% | 108% | 100% | 93% | 98% | 24 fold | 6 fold | 100% | 108% | 111% |
| N#Cc1ccc(/C=C2/C(=O)/C(=C/c3ccc(C#N)cc3)C23CCNCC3)cc1 [Up284, reference compound] | significantly increased | 100% | 60% | 51% | 100% | 45% | 38% |  | ~3 fold | 100% | 86% | 78% |
